Data from US20050096311A1, “Compositions and methods for treatment of nervous system disorders” (CNS Response, priority 2003, published 2005).

Tests used:
[1] = test system: migraine attacks; conditions: given prophylactically; cited from earlier work
[2] = test system: nervous system disorder symptoms in affected patients; assay: Randomized double-blind study in naive patients presenting at least one symptom of a nervous system disorder (Example 1); assay type: in vivo
Description: The design of this study is a randomized double-blind protocol in which a first set of clinicians diagnosed a group of naive (i.e., previously untreated) patients presenting at least one symptom of a nervous system disorder.
A second set of clinicians will monitor the compliance of each patient and assess the presence or absence of at least one symptom of a nervous system disorder on a weekly basis throughout the treatment period. At the termination of the study a third set of clinicians will evaluate the data and document the results.
Relative to Group I, all treatment groups are expected to reduce at least one symptom of a nervous system disorder except Group IV.

[3] = biphasic elimination; cited from earlier work
[4] = formulated as a hydrochloride salt; cited from earlier work
[5] = target: norepinephrine uptake (Homo sapiens, UniProt P23975); conditions: cited from earlier work
[6] = test system: Parkinson's disease symptoms; conditions: cited from earlier work
[7] = test system: pain of migraine; conditions: oral or intrapulmonary administration; cited from earlier work
[8] = cited from earlier work
[9] = cited from earlier work; remark: listed apart in the source
[10] = target: dopamine uptake (Homo sapiens, UniProt Q01959); conditions: cited from earlier work
dopamine uptake, sequence (Q01959 whole entry): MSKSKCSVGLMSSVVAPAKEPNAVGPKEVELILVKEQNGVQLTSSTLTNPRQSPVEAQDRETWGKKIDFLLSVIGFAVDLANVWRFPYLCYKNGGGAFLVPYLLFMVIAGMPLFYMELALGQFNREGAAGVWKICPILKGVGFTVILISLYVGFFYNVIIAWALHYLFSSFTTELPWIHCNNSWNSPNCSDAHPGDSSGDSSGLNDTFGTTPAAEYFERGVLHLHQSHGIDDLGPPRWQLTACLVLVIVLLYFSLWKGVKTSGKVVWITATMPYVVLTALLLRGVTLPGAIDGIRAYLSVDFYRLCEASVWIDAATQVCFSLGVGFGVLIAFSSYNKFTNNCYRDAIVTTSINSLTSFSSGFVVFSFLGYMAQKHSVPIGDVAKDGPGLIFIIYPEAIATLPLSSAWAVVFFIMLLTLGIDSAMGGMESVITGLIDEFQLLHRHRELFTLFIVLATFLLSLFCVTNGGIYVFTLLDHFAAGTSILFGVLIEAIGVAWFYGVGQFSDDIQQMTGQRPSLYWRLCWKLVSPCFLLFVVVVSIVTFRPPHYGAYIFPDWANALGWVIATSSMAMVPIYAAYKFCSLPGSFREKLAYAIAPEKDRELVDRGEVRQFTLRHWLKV

norepinephrine uptake, sequence (P23975 whole entry): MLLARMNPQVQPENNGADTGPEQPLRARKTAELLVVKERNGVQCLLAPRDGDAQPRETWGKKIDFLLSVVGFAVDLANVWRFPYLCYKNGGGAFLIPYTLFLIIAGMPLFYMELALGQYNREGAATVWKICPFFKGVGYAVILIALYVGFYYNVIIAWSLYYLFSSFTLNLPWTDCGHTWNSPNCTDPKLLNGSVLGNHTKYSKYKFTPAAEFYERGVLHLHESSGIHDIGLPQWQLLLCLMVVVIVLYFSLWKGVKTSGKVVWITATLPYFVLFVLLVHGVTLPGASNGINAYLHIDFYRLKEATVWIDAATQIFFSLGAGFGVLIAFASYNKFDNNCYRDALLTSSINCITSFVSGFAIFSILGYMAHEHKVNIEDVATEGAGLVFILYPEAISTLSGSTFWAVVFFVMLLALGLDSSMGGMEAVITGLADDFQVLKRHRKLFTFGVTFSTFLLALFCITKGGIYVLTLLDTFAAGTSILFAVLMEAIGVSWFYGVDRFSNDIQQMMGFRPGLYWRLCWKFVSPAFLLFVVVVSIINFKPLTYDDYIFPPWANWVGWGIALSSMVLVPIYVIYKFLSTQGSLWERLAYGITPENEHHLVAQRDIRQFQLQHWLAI

CC(C)NCC(O)COc1cccc2ccccc12 (stereo not shown) [propranolol]
patients with reduced frequency and intensity of migraine attacks [1]: 70%

CC(NC(C)(C)C)C(=O)c1cccc(Cl)c1 (stereo not drawn) [bupropion, m-chloro-α-(t-butylamino)propiophenone]
Percent Reduction In Nervous System Disorder Symptoms In Affected Patients ([2]; Symptom EIGHT): 25 ± 2.5% | Percent Reduction In Nervous System Disorder Symptoms In Affected Patients ([2]; Symptom FIVE): 25 ± 2.5% | Percent Reduction In Nervous System Disorder Symptoms In Affected Patients ([2]; Symptom FOUR): 25 ± 2.5% | Percent Reduction In Nervous System Disorder Symptoms In Affected Patients ([2]; Symptom ONE): 25 ± 2.5% | Percent Reduction In Nervous System Disorder Symptoms In Affected Patients ([2]; Symptom SEVEN): 25 ± 2.5% | Percent Reduction In Nervous System Disorder Symptoms In Affected Patients ([2]; Symptom SIX): 25 ± 2.5% | Percent Reduction In Nervous System Disorder Symptoms In Affected Patients ([2]; Symptom THREE): 25 ± 2.5% | Percent Reduction In Nervous System Disorder Symptoms In Affected Patients ([2]; Symptom TWO): 25 ± 2.5% | elimination half-life [3]: 11 to 14 h | redistribution half-life [3]: about one | solubility [4]: water-soluble

C[C@@H]1NC(C)(C)CO[C@@]1(O)c1cccc(Cl)c1 [(S,S)-hydroxybupropion]
inhibition of norepinephrine uptake [5]: effective inhibitor of only norepinephrine uptake

C[C@@](Cc1ccc(O)c(O)c1)(NN)C(=O)O [carbidopa]
reduction of the dose of levodopa ([6]; concurrent administration of carbidopa): ≤ 75%

N[C@@H](Cc1ccc(O)c(O)c1)C(=O)O [Levodopa, L-3,4-dihydroxyphenylalanine]
reduction in symptomology ([6]; Parkinson's disease patients): 50% | treated patients showing the reduction in symptomology ([6]; Parkinson's disease patients): 75%

CN1C[C@H](C(=O)N[C@]2(C)O[C@@]3(O)[C@@H]4CCCN4C(=O)[C@H](Cc4ccccc4)N3C2=O)C=C2c3cccc4[nH]cc(c34)C[C@H]21 [Ergotamine]
time to pain relief [7]: 5 h

NC(=O)N1c2ccccc2CC(O)c2ccccc21 (stereo not shown) [MHD, 10, 11-dihydro-10-OH-carbazepine]
increase in the non-protein bound plasma MHD concentration ([8]; co-administration of oxcarbazepine and vilooxazoine): 11% | plasma protein binding ([9]; distribution between blood cell compartments): low level of plasma protein binding | mean non-protein bound MHD fraction ([9]; epileptic patients): approximately 56.7 +/−5.5%

C[C@H]1NC(C)(C)CO[C@]1(O)c1cccc(Cl)c1 [hydroxybupropion]
inhibition of norepinephrine uptake [5]: effective inhibitor | inhibition of dopamine uptake [10]: effective inhibitor

NC(=O)N1c2ccccc2CC(=O)c2ccccc21 [oxcarbazepine]
Percent Reduction In Nervous System Disorder Symptoms In Affected Patients ([2]; Symptom EIGHT): 10 ± 1% | Percent Reduction In Nervous System Disorder Symptoms In Affected Patients ([2]; Symptom FIVE): 10 ± 1% | Percent Reduction In Nervous System Disorder Symptoms In Affected Patients ([2]; Symptom FOUR): 10 ± 1% | Percent Reduction In Nervous System Disorder Symptoms In Affected Patients ([2]; Symptom ONE): 10 ± 1% | Percent Reduction In Nervous System Disorder Symptoms In Affected Patients ([2]; Symptom SEVEN): 10 ± 1% | Percent Reduction In Nervous System Disorder Symptoms In Affected Patients ([2]; Symptom SIX): 10 ± 1% | Percent Reduction In Nervous System Disorder Symptoms In Affected Patients ([2]; Symptom THREE): 10 ± 1% | Percent Reduction In Nervous System Disorder Symptoms In Affected Patients ([2]; Symptom TWO): 10 ± 1% | plasma half-life ([8]; 600 mg oxcarbazepine dose): approximately 19.3±6.2 hours
